{"source": "paper PMC6572064", "about": "“Discovery of 2-(1-(3-(4-Chloroxyphenyl)-3-oxo- propyl)pyrrolidine-3-yl)-1H-benzo[d]imidazole-4-carboxamide: A Potent Poly(ADP-ribose) Polymerase (PARP) Inhibitor for Treatment of Cancer” (Molecules, 2019)", "key": {"[1]": {"tested_on": "MDA-MB-436 (a BRCA-1-mutated breast cancer cell line)", "experiment": "Cell proliferation assay, three-day, CellTiter-Glo, MDA-MB-436", "type": "cell-based", "conditions": "Homo sapiens; for inhibition at 0.00508 µM: MDA-MB-436, MDA-MB-436, Conc. 0.00508 uM; for inhibition at 0.0152 µM: MDA-MB-436, MDA-MB-436, Conc. 0.0152 uM; for inhibition at 0.0457 µM: MDA-MB-436, MDA-MB-436, Conc. 0.0457 uM; for inhibition at 0.41 µM: MDA-MB-436, MDA-MB-436, Conc. 0.41 uM; for inhibition at 1.23 µM: MDA-MB-436, MDA-MB-436, Conc. 1.23 uM; for inhibition at 3.7 µM: MDA-MB-436, MDA-MB-436, Conc. 3.70 uM; for inhibition at 11.11 µM: MDA-MB-436, MDA-MB-436, Conc. 11.11 uM; for inhibition at 33.33 µM: MDA-MB-436, MDA-MB-436, Conc. 33.33 uM; for inhibition at 100 µM: MDA-MB-436, MDA-MB-436, Conc. 100.00 uM", "method": "(§1) A three-day assay was conducted. A cell suspension was prepared. Cell density was counted by an automated cell counter and then diluted to the required density, according to seeding density. 50 μL cells were seeded into 384-well plate in growth medium according to the plate map. The cells were incubated at 37 °C, 5% CO2 overnight.\n(§2) 200× compound solution in DMSO was prepared and diluted with growth medium to 26× final concentration by addition of 26 μL 200× compounds to 174 μL growth medium. Then 2 μL of diluted compound solution was added to cells and the cell was incubated at 37 °C, 5% CO2 for 72 h.\n(§3) The assay plate was equilibrated to room temperature prior to measurement. 15 μL of CellTiter-Glo Reagent was added into each well and the contents were mixed for 2 min on an orbital shaker to induce cell lysis. The cells were incubated at room temperature for 60 min to stabilize luminescent signal. Luminescence was recorded on the Envision system."}, "PARP-1": {"target": "T1, PARP-1 (Homo sapiens, UniProt P09874)", "T1 construct": "purchased BPS Bioscience 80569", "T1 sequence (P09874 whole entry)": "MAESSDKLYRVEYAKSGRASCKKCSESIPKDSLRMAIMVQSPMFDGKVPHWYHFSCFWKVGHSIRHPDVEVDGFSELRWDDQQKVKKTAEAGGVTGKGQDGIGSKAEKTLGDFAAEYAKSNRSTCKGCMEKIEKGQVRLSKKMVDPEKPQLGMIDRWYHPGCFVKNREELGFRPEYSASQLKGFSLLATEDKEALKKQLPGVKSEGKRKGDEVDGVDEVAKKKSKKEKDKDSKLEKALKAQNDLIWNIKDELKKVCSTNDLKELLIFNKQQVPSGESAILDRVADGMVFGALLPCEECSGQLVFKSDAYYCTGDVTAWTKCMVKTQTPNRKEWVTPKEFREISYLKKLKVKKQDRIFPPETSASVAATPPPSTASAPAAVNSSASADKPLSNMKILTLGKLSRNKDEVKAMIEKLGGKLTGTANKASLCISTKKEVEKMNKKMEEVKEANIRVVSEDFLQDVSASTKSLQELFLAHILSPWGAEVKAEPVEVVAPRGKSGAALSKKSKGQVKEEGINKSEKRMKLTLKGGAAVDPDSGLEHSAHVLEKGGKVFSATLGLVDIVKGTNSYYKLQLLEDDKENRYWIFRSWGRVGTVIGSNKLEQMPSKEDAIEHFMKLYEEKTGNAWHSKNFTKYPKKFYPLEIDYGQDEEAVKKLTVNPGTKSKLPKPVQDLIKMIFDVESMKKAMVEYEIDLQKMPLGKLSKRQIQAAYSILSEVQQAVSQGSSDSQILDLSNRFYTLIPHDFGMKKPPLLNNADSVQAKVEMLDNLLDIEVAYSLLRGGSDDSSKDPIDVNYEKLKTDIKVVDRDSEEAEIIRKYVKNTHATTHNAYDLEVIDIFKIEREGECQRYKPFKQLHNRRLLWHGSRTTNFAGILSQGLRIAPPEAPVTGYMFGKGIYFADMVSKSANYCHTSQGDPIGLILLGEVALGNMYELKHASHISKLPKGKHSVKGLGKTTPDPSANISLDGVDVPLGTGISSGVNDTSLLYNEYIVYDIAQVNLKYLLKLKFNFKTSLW", "experiment": "PARP-1 inhibition assay (PARP-1 Chemiluminescent Assay Kit, BPS Bioscience)", "type": "biochemical", "conditions": "for inhibition at 0.01 µM: 10 nM compound", "method": "(§4) The PARP-1 and PARP-2 inhibition assays were performed in outsourcing, by a CRO company, Shanghai Medicilon Inc. (Shanghai, China). […] Briefly, PARP-1 or PARP-2 biotinylated substrate was incubated with compounds or solvent control at varying concentrations and an assay buffer containing the PARP-1 or PARP-2 enzyme."}, "[2]": {"tested_on": "CAPAN-1 (a BRCA-2-mutated pancreatic cancer cell line)", "experiment": "Cell proliferation assay, three-day, CellTiter-Glo, CAPAN-1", "type": "cell-based", "conditions": "Homo sapiens; for inhibition at 0.00508 µM: CAPAN-1, Conc. 0.00508 uM; for inhibition at 0.0152 µM: CAPAN-1, Conc. 0.0152 uM; for inhibition at 0.0457 µM: CAPAN-1, Conc. 0.0457 uM; for inhibition at […]: CAPAN-1, Conc. 0.14 uM; for inhibition at 0.41 µM: CAPAN-1, Conc. 0.41 uM; for inhibition at 1.23 µM: CAPAN-1, Conc. 1.23 uM; for inhibition at 3.7 µM: CAPAN-1, Conc. 3.70 uM; for inhibition at 11.11 µM: CAPAN-1, Conc. 11.11 uM; for inhibition at 33.33 µM: CAPAN-1, Conc. 33.33 uM; for inhibition at 100 µM: CAPAN-1, Conc. 100.00 uM", "method": "as §1, §2, §3"}, "PARP-2": {"target": "T2, PARP-2 (Homo sapiens, UniProt Q9UGN5)", "T2 construct": "purchased BPS Bioscience 80552", "T2 sequence (Q9UGN5 whole entry)": "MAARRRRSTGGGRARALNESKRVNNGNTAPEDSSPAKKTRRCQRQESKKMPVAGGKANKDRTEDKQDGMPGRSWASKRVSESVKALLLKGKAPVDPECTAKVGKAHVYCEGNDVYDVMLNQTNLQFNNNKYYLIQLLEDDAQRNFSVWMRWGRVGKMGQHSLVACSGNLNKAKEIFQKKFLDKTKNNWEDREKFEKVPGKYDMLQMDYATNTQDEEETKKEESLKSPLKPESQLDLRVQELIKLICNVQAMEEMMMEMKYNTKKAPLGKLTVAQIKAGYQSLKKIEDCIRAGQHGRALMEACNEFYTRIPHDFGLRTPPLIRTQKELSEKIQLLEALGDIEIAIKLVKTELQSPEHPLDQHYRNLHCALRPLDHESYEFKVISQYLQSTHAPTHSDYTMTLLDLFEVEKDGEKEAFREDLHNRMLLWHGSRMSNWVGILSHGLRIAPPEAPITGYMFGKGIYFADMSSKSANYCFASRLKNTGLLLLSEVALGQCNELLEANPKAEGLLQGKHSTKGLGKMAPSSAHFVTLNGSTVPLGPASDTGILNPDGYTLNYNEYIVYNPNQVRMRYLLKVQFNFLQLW", "experiment": "PARP-2 inhibition assay (PARP-2 Chemiluminescent Assay Kit, BPS Bioscience)", "type": "biochemical", "conditions": "for inhibition at 0.01 µM: 10 nM compound", "method": "as §4"}}, "note": "Read-outs that look alike come from different tables or passages of the source.", "data": [{"smiles": "NC(=O)c1cccc2[nH]c(C3CCN(CCNC(=O)c4ccccc4)C3)nc12", "note": "(centres unmarked) [Compound 5co, 2-(1-(2-Benzamidoethyl)pyrrolidin-3-yl)-1H-benzo[d]imidazole-4-carboxamide]", "values": [{"measurement": "inhibition at 0.00508 µM", "setting": "[1]; replicate 1, read-out: Inh % 1", "value": 0.116, "unit": "%"}, {"measurement": "inhibition at 0.00508 µM", "setting": "[1]; replicate 2, read-out: Inh % 2", "value": -6.8, "unit": "%"}, {"measurement": "inhibition at 0.0152 µM", "setting": "[1]; replicate 1, read-out: Inh % 1", "value": 3.3, "unit": "%"}, {"measurement": "inhibition at 0.0152 µM", "setting": "[1]; replicate 2, read-out: Inh % 2", "value": -2.8, "unit": "%"}, {"measurement": "inhibition at 0.0457 µM", "setting": "[1]; replicate 1, read-out: Inh % 1", "value": -7.2, "unit": "%"}, {"measurement": "inhibition at 0.0457 µM", "setting": "[1]; replicate 2, read-out: Inh % 2", "value": -12.8, "unit": "%"}, {"measurement": "inhibition at 0.41 µM", "setting": "[1]; replicate 1, read-out: Inh % 1", "value": -3.1, "unit": "%"}, {"measurement": "inhibition at 0.41 µM", "setting": "[1]; replicate 2, read-out: Inh % 2", "value": -1.7, "unit": "%"}, {"measurement": "inhibition at 1.23 µM", "setting": "[1]; replicate 1, read-out: Inh % 1", "value": 5.2, "unit": "%"}, {"measurement": "inhibition at 1.23 µM", "setting": "[1]; replicate 2, read-out: Inh % 2", "value": -9.2, "unit": "%"}, {"measurement": "inhibition at 3.7 µM", "setting": "[1]; replicate 1, read-out: Inh % 1", "value": -2, "unit": "%"}, {"measurement": "inhibition at 3.7 µM", "setting": "[1]; replicate 2, read-out: Inh % 2", "value": -0.8, "unit": "%"}, {"measurement": "inhibition at 11.11 µM", "setting": "[1]; replicate 1, read-out: Inh % 1", "value": 2.4, "unit": "%"}, {"measurement": "inhibition at 11.11 µM", "setting": "[1]; replicate 2, read-out: Inh % 2", "value": -2.7, "unit": "%"}, {"measurement": "inhibition at 33.33 µM", "setting": "[1]; replicate 1, read-out: Inh % 1", "value": 15.5, "unit": "%"}, {"measurement": "inhibition at 33.33 µM", "setting": "[1]; replicate 2, read-out: Inh % 2", "value": 10.6, "unit": "%"}, {"measurement": "inhibition at 100 µM", "setting": "[1]; replicate 1, read-out: Inh % 1", "value": 25.7, "unit": "%"}, {"measurement": "inhibition at 100 µM", "setting": "[1]; replicate 2, read-out: Inh % 2", "value": 18.3, "unit": "%"}, {"measurement": "IC50", "setting": "[1]; MDA-MB-436, 72 h, CellTiter-Glo, read-out: MDA-MB-436 IC50", "value": "> 100", "unit": "µM"}, {"measurement": "inhibition at 0.01 µM", "setting": "PARP-1; supplement sheet, read-out: 10 nM inhibition% PAPR-1", "value": 38.4, "unit": "%"}, {"measurement": "inhibition at 0.01 µM", "setting": "PARP-1; read-out: PARP-1 Inhibition % (10 nM)", "value": 38.4, "unit": "%"}, {"measurement": "IC50", "setting": "PARP-1; read-out: PARP-1 IC50", "value": 11.1, "unit": "nM"}, {"measurement": "IC50", "setting": "[2]; CAPAN-1, 72 h, CellTiter-Glo, read-out: CAPAN-1 IC50", "value": "> 100", "unit": "µM"}, {"measurement": "inhibition at 0.00508 µM", "setting": "[2]; replicate 1, read-out: Inh % 1", "value": -4.9, "unit": "%"}, {"measurement": "inhibition at 0.00508 µM", "setting": "[2]; replicate 2, read-out: Inh % 2", "value": -7.9, "unit": "%"}, {"measurement": "inhibition at 0.0152 µM", "setting": "[2]; replicate 1, read-out: Inh % 1", "value": 7.4, "unit": "%"}, {"measurement": "inhibition at 0.0152 µM", "setting": "[2]; replicate 2, read-out: Inh % 2", "value": -1.7, "unit": "%"}, {"measurement": "inhibition at 0.0457 µM", "setting": "[2]; replicate 1, read-out: Inh % 1", "value": 10.8, "unit": "%"}, {"measurement": "inhibition at 0.0457 µM", "setting": "[2]; replicate 2, read-out: Inh % 2", "value": 10.6, "unit": "%"}, {"measurement": "inhibition at […]", "setting": "[2]; replicate 1, read-out: Inh % 1", "value": 5.7, "unit": "%"}, {"measurement": "inhibition at […]", "setting": "[2]; replicate 2, read-out: Inh % 2", "value": 0.8, "unit": "%"}, {"measurement": "inhibition at 0.41 µM", "setting": "[2]; replicate 1, read-out: Inh % 1", "value": 7.1, "unit": "%"}, {"measurement": "inhibition at 0.41 µM", "setting": "[2]; replicate 2, read-out: Inh % 2", "value": 6.9, "unit": "%"}, {"measurement": "inhibition at 1.23 µM", "setting": "[2]; replicate 1, read-out: Inh % 1", "value": 9.2, "unit": "%"}, {"measurement": "inhibition at 1.23 µM", "setting": "[2]; replicate 2, read-out: Inh % 2", "value": 5, "unit": "%"}, {"measurement": "inhibition at 3.7 µM", "setting": "[2]; replicate 1, read-out: Inh % 1", "value": 25, "unit": "%"}, {"measurement": "inhibition at 3.7 µM", "setting": "[2]; replicate 2, read-out: Inh % 2", "value": 11.1, "unit": "%"}, {"measurement": "inhibition at 11.11 µM", "setting": "[2]; replicate 1, read-out: Inh % 1", "value": 17.9, "unit": "%"}, {"measurement": "inhibition at 11.11 µM", "setting": "[2]; replicate 2, read-out: Inh % 2", "value": -1.4, "unit": "%"}, {"measurement": "inhibition at 33.33 µM", "setting": "[2]; replicate 1, read-out: Inh % 1", "value": 16, "unit": "%"}, {"measurement": "inhibition at 33.33 µM", "setting": "[2]; replicate 2, read-out: Inh % 2", "value": 13.7, "unit": "%"}, {"measurement": "inhibition at 100 µM", "setting": "[2]; replicate 1, read-out: Inh % 1", "value": 29.2, "unit": "%"}, {"measurement": "inhibition at 100 µM", "setting": "[2]; replicate 2, read-out: Inh % 2", "value": 25.9, "unit": "%"}, {"measurement": "inhibition at 0.01 µM", "setting": "PARP-2; supplement sheet, read-out: 10 nM inhibition% PAPR-2", "value": 66.2, "unit": "%"}, {"measurement": "inhibition at 0.01 µM", "setting": "PARP-2; read-out: PARP-2 Inhibition % (10 nM)", "value": 66.2, "unit": "%"}, {"measurement": "IC50", "setting": "PARP-2; read-out: PARP-2 IC50", "value": 5.7, "unit": "nM"}, {"measurement": "IC50", "setting": "PARP-2; supplement sheet, read-out: IC50 PAPR-2", "value": 5.67, "unit": "nM"}]}]}
